Assay results reported in patent US11512054B2, “Pesticidal compounds” (BASF SE, priority 2017, dated 2022).

Experiments:
Type in all cases: in vivo
[1] = test system: Orchid Thrips (Dichromothrips corbetti); experiment: Action on orchid thrips, floral-immersion technique; conditions: adult thrips, 72 hours after treatment, read-out: mortality in comparison with untreated controls
Procedure: Dichromothrips corbetti adults used for bioassay were obtained from a colony maintained continuously under laboratory conditions. For testing purposes, the test compound is diluted in a 1:1 mixture of acetone:water (vol:vol), plus Kinetic® HV at a rate of 0.01% v/v.
Thrips potency of each compound was evaluated by using a floral-immersion technique. All petals of individual, intact orchid flowers were dipped into treatment solution and allowed to dry in Petri dishes. Treated petals were placed into individual re-sealable plastic along with about 20 adult thrips. All test arenas were held under continuous light and a temperature of about 28° C. for duration of the assay. After 3 days, the numbers of live thrips were counted on each petal. The percent mortality was recorded 72 hours after treatment.

[2] = test system: boll weevil (Anthonomus grandis); experiment: Action on boll weevil, eggs on insect diet in 96-well microtiter plates; conditions: 120 h, egg and larval mortality after 5 days, read-out: mortality in comparison with untreated controls
Procedure: For evaluating control of boll weevil (Anthonomus grandis) the test unit consisted of 96-well-microtiter plates containing an insect diet and 5-10 A. grandis eggs.
The compounds were formulated using a solution containing 75% (v/v) water and 25% (v/v) DMSO. Different concentrations of formulated compounds were sprayed onto the insect diet at 5 μl, using a custom built micro atomizer, at two replications.
After application, microtiter plates were incubated at about 25+1° C. and about 75+5% relative humidity for 5 days. Egg and larval mortality was then visually assessed.

[3] = test system: Southern Armyworm (Spodoptera eridania), 2nd Instar Larvae; experiment: Action on southern armyworm, sprayed lima bean plants; conditions: 96 h, 2nd instar larvae on lima bean, 4 days after treatment, read-out: mortality in comparison with untreated controls
Procedure: The active compounds were formulated by a Tecan liquid handler in 100% cyclohexanone as a 10,000 ppm solution supplied in tubes. The 10,000 ppm solution was serially diluted in 100% cyclohexanone to make interim solutions. These served as stock solutions for which final dilutions were made by the Tecan in 50% acetone:50% water (v/v) into 10 or 20 ml glass vials. A nonionic surfactant (Kinetic®) was included in the solution at a volume of 0.01% (v/v). The vials were then inserted into an automated electrostatic sprayer equipped with an atomizing nozzle for application to plants/insects.
Lima bean plants (variety Sieva) were grown 2 plants to a pot and selected for treatment at the 1st true leaf stage. Test solutions were sprayed onto the foliage by an automated electrostatic plant sprayer equipped with an atomizing spray nozzle. The plants were dried in the sprayer fume hood and then removed from the sprayer. Each pot was placed into perforated plastic bags with a zip closure. About 10 to 11 armyworm larvae were placed into the bag and the bags zipped closed. Test plants were maintained in a growth room at about 25° C. and about 20-40% relative humidity for 4 days, avoiding direct exposure to fluorescent light (24 hour photoperiod) to prevent trapping of heat inside the bags. Mortality and reduced feeding were assessed 4 days after treatment, compared to untreated control plants.

[4] = test system: Diamond Back Moth (Plutella xylostella); experiment: Action on diamond back moth, cabbage leaf dip; conditions: foliar, 3rd instar larvae, 72 hours after treatment, read-out: mortality in comparison with untreated controls
Procedure: The active compound is dissolved at the desired concentration in a mixture of 1:1 (v/v) distilled water:acetone. Surfactant (Kinetic® HV) is added at a rate of 0.01% (v/v). The test solution is prepared at the day of use.
Leaves of cabbage were dipped in test solution and air-dried. Treated leaves were placed in petri dishes lined with moist filter paper and inoculated with ten 3rd instar larvae. Mortality was recorded 72 hours after treatment. Feeding damages were also recorded using a scale of 0-100%.

[5] = test system: yellow fever mosquito (Aedes aegypti); experiment: whole plant or invertebrate; conditions: 48 h, larval mortality visually assessed after 2 days, read-out: mortality in comparison with untreated controls
Procedure: For evaluating control of yellow fever mosquito (Aedes aegypti) the test unit consisted of 96-well-microtiter plates containing 200 μl of tap water per well and 5-15 freshly hatched A. aegypti larvae.
The active compounds or mixtures were formulated using a solution containing 75% (v/v) water and 25% (v/v) DMSO. Different concentrations of formulated compounds or mixtures were sprayed onto the insect diet at 2.5 μl, using a custom built micro atomizer, at two replications. For experimental mixtures in these tests identical volumes of both mixing partners at the desired concentrations respectively, were mixed together.
After application, microtiter plates were incubated at 28±1° C., 80±5% RH for 2 days. Larval mortality was then visually assessed.

[6] = test system: tobacco budworm (Heliothis virescens); experiment: Action on tobacco budworm, eggs on insect diet in 96-well microtiter plates; conditions: 120 h, egg and larval mortality after 5 days, read-out: mortality in comparison with untreated controls
Procedure: For evaluating control of tobacco budworm (Heliothis virescens) the test unit consisted of 96-well-microtiter plates containing an insect diet and 15-25 H. virescens eggs.
The compounds were formulated using a solution containing 75% v/v water and 25% v/v DMSO. Different concentrations of formulated compounds were sprayed onto the insect diet at 10 μl, using a custom built micro atomizer, at two replications.
After application, microtiter plates were incubated at about 28+1° C. and about 80+5% relative humidity for 5 days. Egg and larval mortality was then visually assessed.

[7] = test system: Silverleaf Whitefly (Bemisia argentifoli) (Adults); experiment: Action on silverleaf whitefly adults, sprayed cotton plants; conditions: Bemisia argentifolii, 72 h, 3 days after treatment, read-out: mortality in comparison with untreated controls
Procedure: The active compounds were formulated by a Tecan liquid handler in 100% cyclohexanone as a 10,000 ppm solution supplied in tubes. The 10,000 ppm solution was serially diluted in 100% cyclohexanone to make interim solutions. These served as stock solutions for which final dilutions were made by the Tecan in 50% acetone:50% water (v/v) into 5 or 10 ml glass vials. A nonionic surfactant (Kinetic®) was included in the solution at a volume of 0.01% (v/v). The vials were then inserted into an automated electrostatic sprayer equipped with an atomizing nozzle for application to plants/insects.
Cotton plants at the cotyledon stage (one plant per pot) were sprayed by an automated electrostatic plant sprayer equipped with an atomizing spray nozzle. The plants were dried in the sprayer fume hood and then removed from the sprayer. Each pot was placed into a plastic cup and about 10 to 12 whitefly adults (approximately 3-5 days old) were introduced. The insects were collected using an aspirator and a nontoxic Tygon® tubing connected to a barrier pipette tip. The tip, containing the collected insects, was then gently inserted into the soil containing the treated plant, allowing insects to crawl out of the tip to reach the foliage for feeding. Cups were covered with a reusable screened lid. Test plants were maintained in a growth room at about 25° C. and about 20-40% relative humidity for 3 days, avoiding direct exposure to fluorescent light (24 hour photoperiod) to prevent trapping of heat inside the cup. Mortality was assessed 3 days after treatment, compared to untreated control plants.

Row | SMILES | mortality at 500 ppm [1] [%] | mortality at 800 ppm [2] [%] | mortality at 300 ppm [3] [%] | mortality at 500 ppm [4] [%] | mortality at 800 ppm [5] [%] | mortality at 800 ppm [6] [%] | mortality at 300 ppm [7] [%]
1 | CC(C)c1ccccc1NC(=S)N/N=C/c1ccc2c(C(=N)Nc3ccc(OC(F)(F)F)cc3)nn(C)c2n1 [Example C-26, 1-(2-isopropylphenyl)-3-[(E)-[1-methyl-3-[N-[4-(trifluoromethoxy)phenyl]carbamimidoyl]pyrazolo[3,4-b]pyridin-6-yl]methyleneamino]thiourea] | ≥ 75 | ≥ 75 | ≥ 75 | ≥ 75 | ≥ 50 | ≥ 75 | 
2 | CO[C@@H]1[C@@H](OC)[C@H](C)O[C@@H](OC(=O)Nc2ccc3c(C(=S)N(C)c4ccc(OC(F)(F)F)cc4)nn(C)c3c2)[C@@H]1OC [Example C-4, [(2S,3R,4R,5S,6S)-3,4,5-trimethoxy-6-methyl-tetrahydropyran-2-yl]N-[1-methyl-3-[methyl-[4-(trifluoromethoxy)phenyl]carbamothioyl]indazol-6-yl]carbamate] | ≥ 75 | ≥ 75 |  | ≥ 75 | ≥ 50 | ≥ 75 | ≥ 75
3 | CC(C)c1ccccc1N1CCCS/C1=N\N=C\c1ccc2c(C(=N)Nc3ccc(OC(F)(F)F)cc3)nn(C)c2c1 [Example C-37, 6-[(E)-[(Z)-[3-(2-isopropylphenyl)-1,3-thiazinan-2-ylidene]hydrazono]methyl]-1-methyl-N-[4-(trifluoromethoxy)phenyl]indazole-3-carboxamidine] | ≥ 75 | ≥ 75 |  | ≥ 75 | ≥ 50 | ≥ 75 | 
4 | CC(C)c1ccccc1N1C(=O)CS/C1=N\N=C\c1ccc2c(/C=N/c3ccc(OC(F)(F)F)cc3)nn(C)c2c1 [Example C-25, (2Z)-3-(2-isopropylphenyl)-2-[(E)-[1-methyl-3-[(E)-[4-(trifluoromethoxy)phenyl]iminomethyl]indazol-6-yl]methylenehydrazono]thiazolidin-4-one] |  |  |  | ≥ 75 |  | ≥ 75 | 
5 | CC(C)c1ccccc1NC(=S)N/N=C/c1ccc2c(/C(N)=N/c3ccc(OC(F)(F)F)cc3)nsc2c1 [Example C-20, 1-(2-isopropylphenyl)-3-[(E)-[3-[(Z)—N′-[4-(trifluoromethoxy)phenyl]carbamimidoyl]-1,2-benzothiazol-6-yl]methyleneamino]thiourea] | ≥ 75 | ≥ 75 |  | ≥ 75 | ≥ 50 | ≥ 75 | 
6 | CC(C)c1ccccc1N1C(=O)CS/C1=N\N=C\c1ccc2c(C(=N)Nc3ccc(OC(F)(F)F)cc3)nn(C)c2n1 [Example C-27, 6-[(E)-[(Z)-[3-(2-isopropylphenyl)-4-oxo-thiazolidin-2-ylidene]hydrazono]methyl]-1-methyl-N-[4-(trifluoromethoxy)phenyl]pyrazolo[3,4-b]pyridine-3-carboxamidine] | ≥ 75 | ≥ 75 | ≥ 75 | ≥ 75 | ≥ 50 | ≥ 75 | 
7 | CC(C)c1ccccc1N1C(=O)CS/C1=N\N=C\c1ccc2c(C(N)=Nc3ccc(OC(F)(F)F)cc3)nsc2c1 [Example C-21, 6-[(E)-[(Z)-[3-(2-isopropylphenyl)-4-oxo-thiazolidin-2-ylidene]hydrazono]methyl]-N′[4-(trifluoromethoxy)phenyl]-1,2-benzothiazole-3-carboxamidine] | ≥ 75 | ≥ 75 | ≥ 75 | ≥ 75 | ≥ 50 | ≥ 75 | 
8 | CC(C)c1ccccc1N1CCS/C1=N\N=C\c1ccc2c(C(=N)Nc3ccc(OC(F)(F)F)cc3)nn(C)c2c1 [Example C-36, 6-[(E)-[(Z)-[3-(2-isopropylphenyl)thiazolidin-2-ylidene]hydrazono]methyl]-1-methyl-N-[4-(trifluoromethoxy)phenyl]indazole-3-carboxamidine] | ≥ 75 | ≥ 75 |  | ≥ 75 | ≥ 50 | ≥ 75 | 
9 | CC(C)c1ccccc1NC(=S)N/N=C/c1ccc2c(/C=N/c3ccc(OC(F)(F)F)cc3)nn(C)c2c1 [Example C-24, 1-(2-isopropylphenyl)-3-[(E)-[1-methyl-3-[(E)-[4-(trifluoromethoxy)phenyl]iminomethyl]indazol-6-yl]methyleneamino]thiourea] |  |  |  | ≥ 75 | ≥ 50 | ≥ 75 | 
10 | CON=C(Nc1ccc(OC(F)(F)F)cc1)c1nn(C)c2cc(/C=N/N=C3\SC(=O)CN3c3ccccc3C(C)C)ccc12 [Example C-6, 6-[(E)-[(Z)-[3-(2-isopropylphenyl)-5-oxo-thiazolidin-2-ylidene]hydrazono]methyl]-N′-methoxy-1-methyl-N-[4-(trifluoromethoxy)phenyl]indazole-3-carboxamidine] | ≥ 75 | ≥ 75 | ≥ 75 | ≥ 75 | ≥ 50 | ≥ 75 | 
11 | C/N=C(/c1nn(C)c2cc(/C=N/NC(=S)Nc3ccccc3C(C)C)ccc12)N(C)c1ccc(OC(F)(F)F)cc1 [Example C-3, 1-[(E)-[3-[(Z)—N,N′-dimethyl-N-[4-(trifluoromethoxy)phenyl]carbamimidoyl]-1-methyl-indazol-6-yl]methyleneamino]-3-(2-isopropylphenyl)thiourea] | ≥ 75 | ≥ 75 |  | ≥ 75 | ≥ 50 | ≥ 75 | 
